One assay deals with FKBP12 (Homo sapiens (Human), UniProt P62942). Nature of the assay: SPR assay to determine binding affinity to FKBP12 (direct binding). The note with it: immobilized biotinylated avi-FKBP12. (In general: Surface plasmon resonance follows binding to a sensor surface in real time, without labels.)
A further assay has as its target FKBP51 (Homo sapiens (Human), UniProt Q13451). Nature of the assay: SPR assay to determine binding affinity to FKBP51 (direct binding). The note with it: immobilized biotinylated avi-FKBP51. Summed up:
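Biotinylated avi-FKBP51 captured on streptavidin chip to about 2000 RU. Compounds injected at 0.5-1000 nM (8 points, 3-fold) for 120 s contact and 3600 s dissociation in 50 mM HEPES pH 7.5, 150 mM NaCl, 2 mM MgCl2, 1 mM DTT, 0.05% Tween-20, 1% DMSO.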

Assay [1] concerns the target FKBP12 / FRB ternary complex (Homo sapiens (Human), UniProt P42345+P62942). The assay is described as follows: SPR assay to characterize ternary complex formation with FKBP12 (FRB binding to rapalog-saturated FKBP12). The note with it: FRB dilutions with 100 nM rapalog on immobilized FKBP12. In a few lines:
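Biotinylated avi-FKBP12 immobilized (~100 RU) on streptavidin chip; A-B-A injections kept FKBP12 saturated with 100 nM rapalog while FRB (0.00011–20 μM, 3-fold, 12 points) was injected 120 s.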

Assay [2] addresses FKBP51 / FRB ternary complex (Homo sapiens (Human), UniProt P42345+Q13451). The assay is described as follows: SPR assay to characterize ternary complex formation with FKBP51 (FRB binding to rapalog-saturated FKBP51). The note with it: FRB dilutions with 100 nM rapalog on immobilized FKBP51. In a few lines: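 SPR with biotinylated avi-FKBP51 on streptavidin chip (~200 RU); FRB (0.00011-20 μM, 3-fold series) injected with 100 nM rapalog, A-B-A mode keeping FKBP saturated with rapalog.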

A further assay addresses mTORC1 (Homo sapiens (Human), UniProt P42345+P62942). The assay is described as follows: mTORC1 inhibition, AlphaLISA of Phospho-p70 S6 kinase (p70S6K pT389) in PC-3 cells. It counts as cell-based. The note with it: inhibition of p70S6K pT389 levels. (In Alpha technology, singlet oxygen from a donor bead excites a nearby acceptor bead.)
For the next assay, the target named is mTORC2 (Homo sapiens (Human), UniProt P42345+P62942). The assay is described as follows: mTORC2 inhibition, AlphaLISA of Phospho-AKT (pAKT pS473) in PC3 cells. The assay is classed as cell-based.

Where only a bound is given, the exact number is not on record here.

Experimental findings from US11603377B2, “MTORC1 modulators and uses thereof” (Aeovian Pharmaceuticals, Inc., priority 2020, dated 2023) are described below.

Chain of FKBP51 (Q13451 whole entry): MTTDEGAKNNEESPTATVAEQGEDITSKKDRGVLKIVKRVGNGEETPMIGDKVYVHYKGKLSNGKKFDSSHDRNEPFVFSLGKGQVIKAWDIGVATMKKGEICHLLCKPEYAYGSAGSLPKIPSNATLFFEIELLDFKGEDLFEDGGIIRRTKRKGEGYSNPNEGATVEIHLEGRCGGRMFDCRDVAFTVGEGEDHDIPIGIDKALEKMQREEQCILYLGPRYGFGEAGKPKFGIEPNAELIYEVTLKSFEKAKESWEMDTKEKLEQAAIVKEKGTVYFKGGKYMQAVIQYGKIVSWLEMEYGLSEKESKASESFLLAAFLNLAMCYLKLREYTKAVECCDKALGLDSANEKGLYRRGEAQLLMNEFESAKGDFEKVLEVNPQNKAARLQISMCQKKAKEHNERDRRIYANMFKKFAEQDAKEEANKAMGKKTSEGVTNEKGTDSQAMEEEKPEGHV
Chain of FKBP12 (P62942 whole entry): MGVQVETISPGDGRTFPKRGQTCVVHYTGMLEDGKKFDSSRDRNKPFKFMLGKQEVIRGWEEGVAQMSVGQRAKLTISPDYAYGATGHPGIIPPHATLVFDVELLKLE

Consider `CO[C@@H]1C[C@H](C[C@@H](C)[C@@H]2CC(=O)[C@H](C)/C=C(\C)[C@@H](O)[C@@H](OC)C(=O)[C@H](C)C[C@H](C)/C=C/C=C/C=C(\C)[C@H](NS(=O)(=O)CC3CCCC3)C[C@@H]3CC[C@@H](C)[C@@](O)(O3)C(=O)C(=O)N3CCCC[C@H]3C(=O)O2)CC[C@H]1O` [Compound 22], for which the Kd at FKBP12 is under 0.3 nM; on FKBP51, over 100 nM; in assay [1] it was over 800 nM; in assay [2], over 800 nM. For the same molecule, the IC50 on mTORC1 was in the range of 0.1 to 0.8 nM. The “mTORC2 % inhibition at 1 uM” value on mTORC2 is reported as “A (A ≤20% inhibition at 1 micro Molar (uM))”.
Turning to `CO[C@@H]1C[C@H](C[C@@H](C)[C@@H]2CC(=O)[C@H](C)/C=C(\C)[C@@H](O)[C@@H](OC)C(=O)[C@H](C)C[C@H](C)/C=C/C=C/C=C(\C)[C@@H](NS(=O)(=O)CC3CCCC3)C[C@@H]3CC[C@@H](C)[C@@](O)(O3)C(=O)C(=O)N3CCCC[C@H]3C(=O)O2)CC[C@H]1O` [Compound 23], the Kd at FKBP12 is under 0.3 nM; at FKBP51, 10 to 100 nM; in assay [1] it was over 800 nM; in assay [2] it was over 800 nM. Moreover, on mTORC1, the IC50 was over 0.8 nM. For the same molecule, at mTORC2, the “mTORC2 % inhibition at 1 uM” value was “A (A ≤20% inhibition at 1 micro Molar (uM))”.
For the molecule `COCCOCCOCCS(=O)(=O)N[C@H]1C[C@@H]2CC[C@@H](C)[C@@](O)(O2)C(=O)C(=O)N2CCCC[C@H]2C(=O)O[C@H]([C@H](C)C[C@@H]2CC[C@@H](O)[C@H](OC)C2)CC(=O)[C@H](C)/C=C(\C)[C@@H](O)[C@@H](OC)C(=O)[C@H](C)C[C@H](C)/C=C/C=C/C=C/1C` [Compound 25], the Kd on FKBP12 was under 0.3 nM; at FKBP51, 10 to 100 nM; in assay [1], 300 to 800 nM; in assay [2] it was over 800 nM. Also, the IC50 against mTORC1 lay in the range of 0.1 to 0.8 nM. The “mTORC2 % inhibition at 1 uM” value at mTORC2 is on record as “A (A ≤20% inhibition at 1 micro Molar (uM))”.
Regarding `CO[C@@H]1C[C@H](C[C@@H](C)[C@@H]2CC(=O)[C@H](C)/C=C(\C)[C@@H](O)[C@@H](OC)C(=O)[C@H](C)C[C@H](C)/C=C/C=C/C=C(\C)[C@@H](OC3CCS(=O)(=O)C3)C[C@@H]3CC[C@@H](C)[C@@](O)(O3)C(=O)C(=O)N3CCCC[C@H]3C(=O)O2)CC[C@H]1O` (stereo partly drawn) [Compound 26], the Kd on FKBP12 is under 0.3 nM; on FKBP51, over 100 nM; in assay [1], over 800 nM; in assay [2], over 800 nM. At mTORC1, this molecule yielded a concentration for half-maximal inhibition (IC50) of over 0.8 nM. In addition, at mTORC2, the “mTORC2 % inhibition at 1 uM” value is “A (A ≤20% inhibition at 1 micro Molar (uM))”.
Take `CO[C@@H]1C[C@H](C[C@@H](C)[C@@H]2CC(=O)[C@H](C)/C=C(\C)[C@@H](O)[C@@H](OC)C(=O)[C@H](C)C[C@H](C)/C=C/C=C/C=C(\C)[C@@H](OCCC3CCS(=O)(=O)C3)C[C@@H]3CC[C@@H](C)[C@@](O)(O3)C(=O)C(=O)N3CCCC[C@H]3C(=O)O2)CC[C@H]1O` (stereo partly drawn) [Compound 27]: the Kd was under 0.3 nM on FKBP12, 10 to 100 nM at FKBP51, over 800 nM in assay [1] and over 800 nM in assay [2]. Further, the concentration for half-maximal inhibition (IC50) on mTORC1 was over 0.8 nM. Moreover, the “mTORC2 % inhibition at 1 uM” value on mTORC2 is recorded as “A (A ≤20% inhibition at 1 micro Molar (uM))”.
On to `CO[C@@H]1C[C@H](C[C@@H](C)[C@@H]2CC(=O)[C@H](C)/C=C(\C)[C@@H](O)[C@@H](OC)C(=O)[C@H](C)C[C@H](C)/C=C/C=C/C=C(\C)[C@@H](OCCC3CCO3)C[C@@H]3CC[C@@H](C)[C@@](O)(O3)C(=O)C(=O)N3CCCC[C@H]3C(=O)O2)CC[C@H]1O` (stereo partly drawn) [Compound 28], for which the dissociation constant (Kd) is under 0.3 nM on FKBP12, 10 to 100 nM on FKBP51, over 800 nM in assay [1] and over 800 nM in assay [2]. The molecule also returned an IC50 against mTORC1 of 0.1 to 0.8 nM. Moreover, the “mTORC2 % inhibition at 1 uM” value on mTORC2 is “B (B>20% and less than 40% inhibition at 1 uM)”.
In the case of `CO[C@@H]1C[C@H](C[C@@H](C)[C@@H]2CC(=O)[C@H](C)/C=C(\C)[C@@H](O)[C@@H](OC)C(=O)[C@H](C)C[C@H](C)/C=C/C=C/C=C(\C)[C@@H](OCC3CCS(=O)(=O)C3)C[C@@H]3CC[C@@H](C)[C@@](O)(O3)C(=O)C(=O)N3CCCC[C@H]3C(=O)O2)CC[C@H]1O` (stereo partly drawn) [Compound 30], the Kd is under 0.3 nM on FKBP12, 10 to 100 nM on FKBP51, over 800 nM in assay [1] and over 800 nM in assay [2]. On mTORC1, this molecule showed a 50% inhibitory concentration (IC50) of over 0.8 nM. In addition, on mTORC2, the “mTORC2 % inhibition at 1 uM” value is given as “A (A ≤20% inhibition at 1 micro Molar (uM))”.
`CO[C@@H]1C[C@H](C[C@@H](C)[C@@H]2CC(=O)[C@H](C)/C=C(\C)[C@@H](O)[C@@H](OC)C(=O)[C@H](C)C[C@H](C)/C=C/C=C/C=C(\C)[C@@H](OCC3CCOC3)C[C@@H]3CC[C@@H](C)[C@@](O)(O3)C(=O)C(=O)N3CCCC[C@H]3C(=O)O2)CC[C@H]1O` (stereo partly drawn) [Compound 31]: the Kd at FKBP12 is under 0.3 nM; on FKBP51 it was 10 to 100 nM; in assay [1] it was over 800 nM; in assay [2], over 800 nM. At mTORC1, the IC50 lay in the range of 0.1 to 0.8 nM. Further, the “mTORC2 % inhibition at 1 uM” value on mTORC2 was “A (A ≤20% inhibition at 1 micro Molar (uM))”.
Turning to `CO[C@@H]1C[C@H](C[C@@H](C)[C@@H]2CC(=O)[C@H](C)/C=C(\C)[C@@H](O)[C@@H](OC)C(=O)[C@H](C)C[C@H](C)/C=C/C=C/C=C(\C)[C@@H](OCCC3CCOC3)C[C@@H]3CC[C@@H](C)[C@@](O)(O3)C(=O)C(=O)N3CCCC[C@H]3C(=O)O2)CC[C@H]1O` (stereo partly drawn) [Compound 32], the Kd on FKBP12 is under 0.3 nM; on FKBP51, 10 to 100 nM; in assay [1], 300 to 800 nM; in assay [2], over 800 nM. On mTORC1, the IC50 lay within 0.1 to 0.8 nM. For the same molecule, the “mTORC2 % inhibition at 1 uM” value at mTORC2 is on record as “A (A ≤20% inhibition at 1 micro Molar (uM))”.
Consider `COC1CC(CC(C)C2CC(=O)C(C)C=C(C)C(O)C(OC)C(=O)C(C)CC(C)C=CC=CC=C(C)C(OC3CCOCC3)CC3CCC(C)C(O)(O3)C(=O)C(=O)N3CCCCC3C(=O)O2)CCC1O` (stereo not drawn) [Compound 33], for which the dissociation constant Kd is under 0.3 nM at FKBP12, 10 to 100 nM at FKBP51, over 800 nM in assay [1] and over 800 nM in assay [2]. Besides, on mTORC1, the IC50 was over 0.8 nM. The “mTORC2 % inhibition at 1 uM” value on mTORC2 is listed as “A (A ≤20% inhibition at 1 micro Molar (uM))”.
For the molecule `CO[C@@H]1C[C@H](C[C@@H](C)[C@@H]2CC(=O)[C@H](C)/C=C(\C)[C@@H](O)[C@@H](OC)C(=O)[C@H](C)C[C@H](C)/C=C/C=C/C=C(\C)[C@@H](OCCC3COC3)C[C@@H]3CC[C@@H](C)[C@@](O)(O3)C(=O)C(=O)N3CCCC[C@H]3C(=O)O2)CC[C@H]1O` [Compound 34], the Kd was under 0.3 nM on FKBP12, 10 to 100 nM at FKBP51, over 800 nM in assay [1] and over 800 nM in assay [2]. This molecule came in with an IC50 at mTORC1 of over 0.8 nM. Besides, at mTORC2, the “mTORC2 % inhibition at 1 uM” value is reported as “A (A ≤20% inhibition at 1 micro Molar (uM))”.
In the case of `COC1CC(CC(C)C2CC(=O)C(C)C=C(C)C(O)C(OC)C(=O)C(C)CC(C)C=CC=CC=C(C)C(OC3CCOC3)CC3CCC(C)C(O)(O3)C(=O)C(=O)N3CCCCC3C(=O)O2)CCC1O` (stereo not drawn) [Compound 35], the Kd on FKBP12 is under 0.3 nM; at FKBP51 it was under 10 nM; in assay [1], over 800 nM; in assay [2] it was over 800 nM. Besides, the IC50 at mTORC1 is over 0.8 nM. At mTORC2, the “mTORC2 % inhibition at 1 uM” value is given as “A (A ≤20% inhibition at 1 micro Molar (uM))”.
Regarding `COC1CC(CC(C)C2CC(=O)C(C)C=C(C)C(O)C(OC)C(=O)C(C)CC(C)C=CC=CC=C(C)C(OCC3CCC3)CC3CCC(C)C(O)(O3)C(=O)C(=O)N3CCCCC3C(=O)O2)CCC1O` (stereo not drawn) [Compound 36], the Kd at FKBP12 was under 0.3 nM; at FKBP51 it was over 100 nM; in assay [1] it was 300 to 800 nM; in assay [2] it was over 800 nM. Moreover, the half-maximal inhibitory concentration (IC50) against mTORC1 was 0.1 to 0.8 nM. At mTORC2, the “mTORC2 % inhibition at 1 uM” value was “B (B>20% and less than 40% inhibition at 1 uM)”.

A word on the Kd: it is the equilibrium constant for the complex coming apart. A lower Kd goes with a tighter complex. The IC50 is the concentration needed to halve the response being measured. Low readings indicate greater potency, high ones weaker potency.
